Earlier results as cited in patent publication US7169813B2, “4-oxo-fenretinide, administered alone and in combination with fenretinide, as preventive and therapeutic agent for cancer” (Fondazione IRCCS “Istituto Nazionale Dei Tumori”, priority 2004, dated 2007).

Assays:
human ovarian carcinoma = conditions: mice bearing a human ovarian carcinoma, cited from earlier work
[1] = system: different tumor cell lines; conditions: cited from earlier work

Which results are given for `COc1ccc(NC(=O)\C=C(C)/C=C/C=C(C)\C=C\C2=C(C)CCCC2(C)C)cc1` (stereo in doubt) [4-MPR, N-(4-methoxyphenyl)retinamide]?
antitumor effect (human ovarian carcinoma): no antitumor effect; effect on 4-HPR activity (human ovarian carcinoma; with 4-HPR): did not increase 4-HPR activity; inhibiting proliferation [1]: ineffective
